According to patent US8119646B2, “Fungicide hydroximoyl-tetrazole derivatives” (Bayer CropScience AG, priority 2006, dated 2012):

Experiment: logP determination by HPLC on a reversed-phase column (C 18), EEC Directive 79/831 Annex V.A8
Settings: not given
Description: Temperature: 40° C.; Mobile phases: 0.1% aqueous formic acid and acetonitrile; linear gradient from 10% acetonitrile to 90% acetonitrile.

Row | SMILES | LogP
1 | Cc1nnnn1C(=NOCc1nsc(N)n1)c1cccc(Cl)c1 [Compound 65, O-(5-Amino-1,2,4-thiadiazol-3-yl)methyl-(3-chlorophenyl-5-methyltetrazol-1-yl)methanone oxime] | 2.17

Same assay, conditions: HPLC reversed-phase C18, 40° C., 0.1% aqueous formic acid and acetonitrile, gradient 10% to 90% acetonitrile

Row | SMILES | LogP
2 | COCCNC(=O)Nc1cccc(CON=C(C2CCCCC2)n2nnnc2C)n1 [Compound 38] | 2.78
3 | Cc1nnnn1C(Cc1ccccc1)=NOCc1csc(NC(=O)NC(C)(C)C)n1 [Compound 4] | 2.91
4 | Cc1nnnn1C(=NOCc1cccc(N)n1)C1CC1 [Compound 41] | 0.87
5 | CCCC(=O)Nc1cccc(CON=C(C2CCCCC2)n2nnnc2C)n1 [Compound 33] | 3.55
6 | Cn1nnnc1C(=NOCc1nccc(NC(=O)C(C)(C)C)n1)c1ccccc1 [Compound 79] | 3.06
7 | Cn1nnnc1C(=NOCc1nccc(N)n1)c1ccccc1 [Compound 77] | 0.92
8 | Cc1ccc(C(=NOCc2nsc(N)n2)c2nnnn2C)cc1 [Compound 68] | 2.07
9 | Cc1nnnn1C(Cc1ccccc1)=NOCc1csc(NC(=O)C2CC2)n1 [Compound 1] | 2.56
10 | CCCC(=O)Nc1nc(CON=C(Cc2ccccc2)n2nnnc2C)cs1 [Compound 2] | 2.73
11 | Cc1nnnn1C(=NOCc1cccc(NC(=O)NCCc2ccc(F)cc2)n1)C1CC1 [Compound 44] | 2.5
12 | COc1ccc(C(=O)Nc2cccc(CON=C(C3CCCCC3)n3nnnc3C)n2)cc1 [Compound 24] | 3.99
13 | CC(C)C(=O)Nc1ccnc(CON=C(c2ccccc2)c2nnnn2C)n1 [Compound 81] | 2.68
14 | Cn1nnnc1C(=NOCc1nccc(NC(=O)C2CC2)n1)c1ccccc1 [Compound 80] | 2.5
15 | CC(C)CC(=O)Nc1ccnc(CON=C(c2ccccc2)c2nnnn2C)n1 [Compound 82] | 3
16 | CCCCCOC(=O)Nc1cccc(CON=C(C2CCCCC2)n2nnnc2C)n1 [Compound 29] | 5
17 | Cc1nnnn1C(Cc1ccccc1)=NOCc1csc(NC(=O)C2CCCC2)n1 [Compound 11] | 3.18
18 | Cn1nnnc1C(=NOCc1cccc(NC(=O)C(F)(F)F)n1)C1CCCCC1 [Compound 76] | 3.69

Row | SMILES | LogP
19 | Cc1nnnn1C(Cc1ccccc1)=NOCc1csc(NC(=S)NCc2ccccc2)n1 [Compound 3] | 3.64
20 | Cc1nnnn1C(=NOCc1cccc(NC(=O)C(C)(C)C)n1)C1CCCCC1 [Compound 30] | 3.96
21 | Cc1nnnn1C(Cc1ccccc1)=NOCc1csc(NC(=O)Cc2ccccc2)n1 [Compound 6] | 3.06
22 | CCCCCNC(=O)Nc1nc(CON=C(Cc2ccccc2)n2nnnc2C)cs1 [Compound 5] | 3.18
23 | Cc1nnnn1C(=NOCc1cccc(NC(=O)NC2CC2)n1)C1CC1 [Compound 46] | 1.88
24 | Cc1nnnn1C(Cc1ccccc1)=NOCc1csc(NC(=O)C(C)(C)C)n1 [Compound 7] | 3.15
25 | Cn1nnnc1C(=NOCc1cccc(NC(=O)C2CC2)n1)C1CCCCC1 [Compound 73] | 3.2
26 | Cc1nnnn1C(=NOCc1cccc(NC(=O)C2CC2)n1)C1CC1 [Compound 48] | 2.11
27 | CCCNC(=O)Nc1cccc(CON=C(C2CC2)n2nnnc2C)n1 [Compound 50] | 2.09
28 | CCCCCC(=O)Nc1cccc(CON=C(c2nnnn2C)C2CCCCC2)n1 [Compound 71] | 4.25
29 | COc1ccc(CCNC(=O)Nc2cccc(CON=C(C3CC3)n3nnnc3C)n2)cc1 [Compound 51] | 2.44
30 | Cc1nnnn1C(Cc1ccccc1)=NOCc1csc(NC(=O)CCCc2ccccc2)n1 [Compound 9] | 3.61
31 | CCCCCC(=O)Nc1nc(CON=C(Cc2ccccc2)n2nnnc2C)cs1 [Compound 8] | 3.3
32 | Cc1ccc(C(=NOCc2nsc(NC(=O)Cc3ccccc3)n2)c2nnnn2C)cc1 [Compound 69] | 3.22
33 | CCCCCC(=O)Nc1cccc(CON=C(CCc2ccccc2)n2nnnc2C)n1 [Compound 17] | 3.84
34 | CCCCCC(=O)Nc1ccnc(CON=C(c2ccccc2)c2nnnn2C)n1 [Compound 78] | 3.46
35 | COc1ccc(OC(=O)Nc2cccc(CON=C(C3CCCCC3)n3nnnc3C)n2)cc1 [Compound 26] | 4.16

Same assay, conditions: reversed-phase C18 HPLC column

Row | SMILES | chromatographic logP
36 | Cc1nnnn1/C(=N/OCc1cccc(N)n1)C1CCCCC1 [Compound 23, O-(2-Aminopyridin-6-yl)methyl-(5-methyltetrazol-1-yl)-cyclohexylmethanone oxime] | 1.43
37 | CCCCCC(=O)Nc1cccc(CO/N=C(\C2CCCCC2)n2nnnc2C)n1 [Compound 27, O-(2-n-Pentylcarbonylaminopyridin-6-yl)methyl-(5-methyltetrazol-1-yl)-cyclohexylmethanone oxime] | 4.39
38 | Cc1nnnn1/C(=N/OCc1cccc(N2C(=O)c3ccccc3C2=O)n1)C1CCCCC1 [Compound 22, O-(2-Phtalimidopyridin-6-yl)methyl-(5-methyltetrazol-1-yl)-cyclohexylmethanone oxime] | 3.46
